Test results from patent EP2321300B1, “CHLOROPHYLL CATABOLITES” (Universität Innsbruck, priority 2008, dated 2010).

Test system: Autoxidation von Linolensäure
Test: Antioxidant test: inhibition of hydroperoxide formation in radical-chain autoxidation of linoleic acid (after Stocker et al.), AIBN as radical starter, UV/Vis at 234 nm or HPLC
Format: biochemical
Details: for IC50: Autoxidation of Linolensäure in the presence of air, b23 room temperature (37°C, 0,15 M Linolsäure, 2 mM AIBN, 6 % (v/v) Methanol), read-out: Konzentration c0,5 (Rate der Peroxidbildung auf die Hälfte reduziert)
Description: Stocker et al. verwendeten zur Quantifizierung der antioxidativen Wirkung des Hämabbauproduktes Bilirubin ein einfaches Testsystem. Die essentielle Fettsäure Linolsäure, eine zweifach ungesättigte Fettsäure, ist sehr empfindlich gegenüber einer Oxidation durch freie Radikale. Derartige Oxidationen können in Form von Kettenreaktionen z.B. in Zellmembranen großflächige Schäden herbeiführen. In vitro wurde dieser "oxidative Stress" durch den Einsatz einer Azoverbindung (Radikalstarter) simuliert. Derartige Azoverbindungen bilden ständig, abhängig von der Temperatur durch Abspaltung von Stickstoff (N2) Kohlenstoffradikale, die wiederum mit den ungesättigten Bindungen der Fettsäuren reagieren können. Es bilden sich Fettsäureradikale die ihrerseits wiederum mit Sauerstoff reagieren. Das führt zur Bildung von Fettsäurehydroperoxiden, die wegen ihrer besonderen Absorptionseigenschaften in UV-Bereich (234 nm) spektroskopisch nachweisbar sind. Abhängig von der Konzentration des Radikalbildners steigt also mit der Zeit die Anzahl der Fettsäurehydroperoxidmoleküle an. Setzt man einen antioxidativ wirksamen Stoff zu, können Radikale abgefangen werden, und die Bildung der Hydroperoxide wird verlangsamt.
Das Ergebnis dieser Untersuchungen zeigt die Figur 8, in der die zeitliche Abhängigkeit der Zunahme oxidierter Linolsäure bei unterschiedlichen Konzentrationen der Antioxidantien Bilirubin bzw. NCC-1 aufgetragen ist.
Die Aktivität des natürlichen und weniger polaren Cj-YCC-2 als Antioxidans wurde in Lösung mittels Standardexperimenten, die unter anderem auch in der WO 2007/030848 beschrieben sind, getestet unter Verwendung der Autoxidation von Linolensäure in der Anwesenheit von Luft und bei Raumtemperatur. Das gelbe Tetrapyrrol Cj-YCC-2 inhibierte die Erscheinung von Hydroperoxiden aus einer Radikal-Ketten-Autoxidation von Linolensäure in der Anwesenheit von Luft (siehe Fig. 8). […]

Row | SMILES | IC50 | Erscheinung von Hydroperoxiden aus einer Radikal-Ketten-Autoxidation von Linolensäure (in the presence of air, Fig. 8)
1 | C=CC1=C(C)/C(=C\c2[nH]c([C@@H]3c4[nH]c(Cc5[nH]c(C=O)c(C)c5CCO)c(C)c4C(=O)[C@H]3C(=O)OC)c(CCC(=O)O)c2C)NC1=O [Cj-YCC-1, (13^2S,15R,20E) - 3',3^2-Didehydro - 4,5,10,15 - (22,24H) - hexahydro - 13^2 - methoxycarbonyl - 4,5 - seco - 4,5 - dioxo - phytoporphyrinat] | ~10 µM | –
2 | C=CC1=C(C)C(Cc2[nH]c(C3c4[nH]c(Cc5[nH]c(C=O)c(C)c5CCO)c(C)c4C(=O)C3C(=O)OC)c(CCC(=O)O)c2C)NC1=O (stereo not drawn) [Cj-NCC-1, reference compound] | ~100 µM | –
3 | C=CC1=C(C)/C(=C/c2[nH]c([C@@H]3c4[nH]c(Cc5[nH]c(C=O)c(C)c5CCO)c(C)c4C(=O)[C@H]3C(=O)OC)c(CCC(=O)O)c2C)NC1=O [Cj-YCC-2, (13^2S,15R,20Z) - 3^1,3^2-Didehydro - 4,5,10,15 - (22,24H) - hexahydro - 13^2 - methoxycarbonyl - 4,5 - seco - 4,5 - dioxo - phytoporphyrinat] | – | inhibierte
